{
  "source": "patent US7675626B2",
  "about": "“Method of detecting drug resistant microorganisms by surface plasmon resonance system” (priority 2006, dated 2010)",
  "key": {"[1]": {"tested_on": "ampicillin resistant strain (JM109 transformed by ampicillin resistant plasmid)", "experiment": "SPR angle shift, ampicillin resistance test (resistant strain)", "format": "cell-based, E. coli", "from_the_text": "(§1) On setting up the surface plasmon resonance, a He—Ne laser (wavelength=632.8 nm) was used as the light source. The laser beam passed through the polarizer to block […], and only p-polarization component could excite surface plasmon. The transmitted p-polarization beam was split into two beams via beam splitter (BS), one beam was detected by photodiode as reference light, and the other beam injected into prism at specific range of angles to decide surface plasmon angle. The reflected light was detected via the photodiode in the opposite side of prism as signal light. Surface plasmon was excited on Au metal film deposited on flat glass surface which attached on prism via matching oil. The current signal detected by photodiode was expanded via amplifier and transformed into voltage signal via 16-bit A/D converter (Adventech PCI-1716) The Y-axial represented the ratio of reference light and signal light, X-axial represented the incident angle of interface between prism and sample. Incident angle was controlled by controller which motor motorized stage with two arms. When surface plasmon resonance angle was detected, the energy of injected light was absorbed and surface plasmon resonance was achieved. This experimental setup was build by National Cheng-Kung University, department of Engineering Science, Adaptic Photonic Lab.\n(§2) The bacteria used herein were JM109 strain, which was recA1 mutation that helped ensure insert stability. EndA1 mutation improved the quality of the plasmid miniprep DNA. HsdR17 mutation prevented the cleavage of cloned DNA by an endogenous endonuclease system.\n(§3) Penicillin was referred to β-lactam drugs because of the importance of the β-lactam ring. An intact ting structure was essential for antibacterial activity. The cleavage of the ring by penicillinase (β-lactamase) inactivated the drug. The antibiotic bacteria strain used herein was transformed by ampicillin resistant plasmid that translated β-lactamase to cleave the ring of ampicillin. The bacteria was picked out by loop and planted in 5 ml LB broth over night, then transferred into 100 ml LB and incubated for two hours.\n(§4) Diluted Poly-L-Lysine solution with deionized water prior to coating slides. The flat glass surface deposited with Au metal film was immersed in poly-L-lysine solution (concentration is […]) for at least 24 hours to interact with Au metal film, cells can be immobilized on biochips after incubation.\n(§5) The sterilized DI water was injected into the flow chamber for 30 min to stabilize the system when biochip coated with poly-L-lysine was assembled. After balancing, the incubated LA broth was injected into the flow chamber for 210 minutes to cover the AU metal film. Subsequently, antibiotic solution was injected, and the surface plasmon resonance curve was observed on the computer.\n(§6) Surface plasmon resonance system measured SPR angle continuously, and compared SPR curve of antibiotic susceptible and antibiotic resistant strain under the same condition. The SPR curve of antibiotic resistant strain was depicted in FIG. 2, and antibiotic susceptible strain SPR curve was depicted in FIG. 3. Experimental data represented that after 30 minutes of balance of the SPR system, the injection of bacteria LB broth increased the SPR angle. After 210 minutes, the extra bacteria were washed with deionized water and presented the decrease of SPR angle, then balanced for 10-20 minutes. Antibiotic solution was injected after the balance curve. […]"}, "[2]": {"tested_on": "ampicillin susceptible strain (JM109)", "experiment": "SPR angle shift, ampicillin sensitivity test (susceptible strain)", "format": "cell-based, E. coli", "settings": "for susceptible surface plasmon resonance angle shift/resistant surface plasmon resonance angle shift: ratio susceptible/resistant strain", "from_the_text": "as §1, §2, §3, §4, §5, §6"}},
  "note": "Several values for one entry are separate records, joined by “and”; a condition that tells them apart may be missing. Identical values can stand only once.",
  "data": [
    {"smiles": "CC1(C)S[C@@H]2[C@H](NC(=O)[C@H](N)c3ccccc3)C(=O)N2[C@H]1C(=O)O", "note": "[ampicillin]", "values": [
      {"measurement": "Ampicillin resistant surface plasmon resonance angle shift", "setting": "[1]; Average of 4 repeats", "value": "−0.02935"},
      {"measurement": "drop of SPR angle", "setting": "[1]; standard kinetic plot (FIG. 2), after injection of antibiotics", "value": "−0.02128", "unit": "degree"},
      {"measurement": "drop of SPR angle of resistant strain compared to susceptible strain", "setting": "[1]; standard kinetic plot (FIGS. 2, 3)", "value": "approximately ⅓"},
      {"measurement": "drop of SPR angle of resistant strain compared to susceptible strain", "setting": "[1]; thirty minutes after antibiotic treatment", "value": "approximately ⅕"},
      {"measurement": "drop of SPR angle", "setting": "[1]; thirty minutes after antibiotic treatment (FIG. 4)", "value": "−0.00332", "unit": "degree"},
      {"measurement": "Ampicillin susceptible surface plasmon resonance angle shift", "setting": "[2]; Average of 4 repeats", "value": "−0.0659"},
      {"measurement": "susceptible surface plasmon resonance angle shift/resistant surface plasmon resonance angle shift", "setting": "[2]; Average of 4 repeats", "value": 2.377},
      {"measurement": "susceptible surface plasmon resonance angle shift/resistant surface plasmon resonance angle shift", "setting": "[2]; single repeat experiments", "value": "1.9834 and 2.6208 and 3.2312 and 1.6729"},
      {"measurement": "drop of SPR angle", "setting": "[2]; standard kinetic plot (FIG. 3), after injection of antibiotics", "value": "−0.06876", "unit": "degree"},
      {"measurement": "drop of SPR angle", "setting": "[2]; thirty minutes after antibiotic treatment (FIG. 5)", "value": "−0.01702", "unit": "degree"}
    ]}
  ]
}
